Data as given in patent publication US20060111342A1, “Insecticidal tricyclic derivatives” (priority 2002, published 2006).

Columns and labels:
tobacco hornworm = settings: in vivo; cited from earlier work
[1] = tested on: cotton aphid (Aphis gossypii); experiment: Cotton aphid mortality on sprayed cotton plants, assessed after 24 hours (Table 2); assay type: in vivo; settings: read-out: Mortality of Cotton Aphid On Cotton Plants: More Than 75% Mortality (A)
Description: (§1) The compounds of formula I useful in the present invention were tested for insecticidal activity by observing mortality in a population of cotton aphid (Aphis gossypii) on treated cotton plants caused by a test compound, when compared to like populations of cotton aphid on untreated plants. These tests were conducted in the following manner:
For each rate of application of test compound, two seven-to-ten days old cotton seedlings (Gossypium hirsutium) grown in 7.6 cm diameter pots were selected for the test. Each test plant was infested with about 120 adult cotton aphids by placing onto each test plant cuttings of leaves from cotton plants grown in a cotton aphid colony. Once infested, the test plants were maintained for up to about 12 hours to allow complete translocation of the aphids onto the test plant. A solution comprising 1000 part per million (ppm) of each test compound was prepared by dissolving 10 milligrams of the test compound in 1 mL of acetone. Each solution was then diluted with 9 mL of a solution of 0.03 mL of polyoxyethylene(10) isooctylphenyl ether in 100 mL of water. […] After this time, each plant was assessed for percent mortality caused by the test compound when compared to the population of aphids that was infested onto the test plants prior to treatment with test compound. […]

[2] = tested on: cotton aphid (Aphis gossypii); experiment: Cotton aphid test in the same manner, more definitive percent mortality at selected rates and exposure times (Table 3); assay type: in vivo
Description: as §1
For each rate of application of test compound, two seven-to-ten days old cotton seedlings (Gossypium hirsutium) grown in 7.6 cm diameter pots were selected for the test. Each test plant was infested with about 120 adult cotton aphids by placing onto each test plant cuttings of leaves from cotton plants grown in a cotton aphid colony. Once infested, the test plants were maintained for up to about 12 hours to allow complete translocation of the aphids onto the test plant. A solution comprising 1000 part per million (ppm) of each test compound was prepared by dissolving 10 milligrams of the test compound in 1 mL of acetone. Each solution was then diluted with 9 mL of a solution of 0.03 mL of polyoxyethylene(10) isooctylphenyl ether in 100 mL of water. About 2.5 mL of solution of each test compound was needed to spray each replicate of test plant (5 mL total for each test compound). If needed, the solution of 1000 ppm of test compound was serially diluted with a solution of 10% acetone and 300 ppm of polyoxyethylene(10) isooctylphenyl ether in water to provide solutions of each test compound for lower rates of application, for example, 300 ppm, 100 ppm, 30 ppm, or 10 ppm. Each replicate of test plant was sprayed with the solutions of test compound until run-off on both the upper and lower surfaces of the leaves. All the test plants were sprayed using a DeVilbus Atomizer Model 152 (Sunrise Medical, Carlsbad, Calif.) at a pressure of about 0.63-0.74 kilogram per square centimeter from a distance of about 30.5 centimeters from the test plants. For comparison purposes, a solution of a standard, such as amitraz or demethylchlordimeform (DCDM), prepared in a manner analogous to that set forth above, as well as a solution of 10% acetone and 300 ppm of polyoxyethylene(10) isooctylphenyl ether in water containing no test compound were also sprayed onto test plants. Upon completion of spraying the solutions of test compound, the solution of standard, and the solution containing no test compound, the plants were allowed to dry. […] After this time, each plant was assessed for percent mortality caused by the test compound when compared to the population of aphids that was infested onto the test plants prior to treatment with test compound. […] If there was 75% mortality or greater of the cotton aphid, a test compound was designated as being more insecticidally active (A).
In a test conducted in the same manner as set forth above, certain compounds of formula I were tested to determine a more definitive percent mortality of cotton aphid.

In the case of `CN(C)CCC=C1c2ccccc2CCc2ccccc21` [amitriptyline], the “anti-feeding activity against tobacco hornworm” value (tobacco hornworm) is given as “anti-feeding activity”.

In the case of `CN1CCC(=C2c3ccccc3Oc3ccccc32)CC1` [Compound 8, 9-(1-methyl-4-piperidylidene)xanthene], the mortality at 100 ppm [1] is reported as over 75% and the mortality at 100 ppm ([2]; Aphis gossypii, 96 h, read-out: Percent Mortality of Cotton Aphid on Cotton Plants) is reported as 88%.

For `CNCCCN1c2ccccc2CCc2ccccc21` [Desipramine, desipramine], the “anti-feeding activity against tobacco hornworm” value (tobacco hornworm) is listed as “anti-feeding activity”.

With `CN1CCN(C2Cc3ccc(F)cc3Sc3ccc(C(F)(F)F)cc32)CC1.O=C(O)/C=C\C(=O)O.O=C(O)/C=C\C(=O)O` (stereo not shown) [Compound 125] the “Percent Mortality of Cotton Aphid on Cotton Plants” value (“Percent Mortality of Cotton Aphid” below) ([2]; 100 ppm, 72 hours exposure) was 90%.

With `CSc1ccc2c(c1)C(N1CCN(Cc3ccncc3)CC1)Cc1ccccc1S2` (stereo not shown) [Compound 173] the “Percent Mortality of Cotton Aphid” value ([2]; 1000 ppm, 96 hours exposure) was 82%.

In the case of `CN1CCCN(C2Cc3ccccc3Sc3ccc(OC(F)(F)F)cc32)CC1` (stereo not shown) [Compound 185], the “Percent Mortality of Cotton Aphid” value ([2]; 1000 ppm, 168 hours exposure) is reported as 100%.
